Laboratory results reported in ChEMBL document CHEMBL1201862, “PubChem BioAssay data set” (2004).
Active and inactive are the calls of the source.

Columns and labels:
Protein Wnt-3a = Protein Wnt-3a (Mus musculus, UniProt P27467); assay: Wnt3a-driven reporter signaling inhibition, dose response, selectivity assay for Gli-SUFU antagonist project, Wnt-LIGHT cells, luminescence (AID 651570); format: functional; conditions: read-out: IC50_Mean;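 further: Wnt-LIGHT reporter cells stimulated with conditioned medium from Wnt3a-producing cells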
Cytochrome P450 2D6 = Cytochrome P450 2D6 (Homo sapiens, UniProt P10635);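 further: CYP2D6 member of a cytochrome P450 panel assay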
Cytochrome P450 3A4 = Cytochrome P450 3A4 (Homo sapiens, UniProt P08684);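 further: CYP3A4 tested as one member of a cytochrome P450 panel screen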
[1] = molecular target: Ras and Rab interactor 1/Tyrosine-protein kinase ABL1 (Homo sapiens, UniProt P00519+Q13671); format: functional;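 further: biochemical TR-FRET dose-response test measuring inhibition of binding between Rin1 and Abl proteins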
[2] = molecular target: T1, Delta-type opioid receptor (Homo sapiens, UniProt P41143); assay: HTS Image-Based Screen for Antagonists of the DOR Receptor. [Related pubchem assays (depositor defined):AID1777, AID1785, AID1786, AID2133]; format: functional
Mu-type opioid receptor = Mu-type opioid receptor (Homo sapiens, UniProt P35372); assay: HTS Image-Based Screen for Agonists of the MOR Receptor. [Related pubchem assays (depositor defined):AID1777, AID1785, AID1786, AID2133]; format: functional;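 further: imaging of beta-arrestin GFP recruitment into spots after receptor activation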
[3] = molecular target: T1, Delta-type opioid receptor; assay: HTS Image-Based Screen for Agonists of the DOR Receptor. [Related pubchem assays (depositor defined):AID1777, AID1786, AID2133]; format: functional
[4] = inhibitors of intracellular T. cruzi replication, confirmation, NIH3T3 host cells, beta-gal luminescence (AID 2044); format: functional, cell-based;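 further: intracellular parasites grown in NIH/3T3 mouse fibroblasts as host cells; luminescent beta-galactosidase reporter signal from transgenic T. cruzi replicating inside host cells; inhibitors lower the luminescence signal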
[5] = molecular target: T2, Kappa-type opioid receptor (Homo sapiens, UniProt P41145); format: functional
[6] = cytotoxicity toward NIH3T3 fibroblasts, dose response, counter-screen, cell-based, ATP luminescence, mouse fibroblasts (AID 2010); format: functional;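 further: cells exposed to compound for about 90 hours before reading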
Beta-galactosidase [7] = molecular target: T3, Beta-galactosidase (Escherichia coli, UniProt Q8VNN2); format: functional
[8] = molecular target: T2, Kappa-type opioid receptor; format: functional; remark: listed apart in the source
[9] = molecular target: Glucose-6-phosphate 1-dehydrogenase (Homo sapiens, UniProt P11413); assay: human G6PD enzyme inhibitors, dose response, selectivity assay for P. falciparum G6PD inhibitor project, biochemical, fluorescence (AID 504792); format: functional
[10] = molecular target: T4, Short transient receptor potential channel 4 (Mus musculus, UniProt Q9QUQ5); assay: mouse TRPC4 channel inhibitors, dose response, cell-based, HEK293 TRPC4/mu-opioid, Fluo-4 calcium (AID 434942); format: functional;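 further: potency of inhibitors blocking the TRPC4 calcium response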
T4 sequence (Q9QUQ5 whole entry): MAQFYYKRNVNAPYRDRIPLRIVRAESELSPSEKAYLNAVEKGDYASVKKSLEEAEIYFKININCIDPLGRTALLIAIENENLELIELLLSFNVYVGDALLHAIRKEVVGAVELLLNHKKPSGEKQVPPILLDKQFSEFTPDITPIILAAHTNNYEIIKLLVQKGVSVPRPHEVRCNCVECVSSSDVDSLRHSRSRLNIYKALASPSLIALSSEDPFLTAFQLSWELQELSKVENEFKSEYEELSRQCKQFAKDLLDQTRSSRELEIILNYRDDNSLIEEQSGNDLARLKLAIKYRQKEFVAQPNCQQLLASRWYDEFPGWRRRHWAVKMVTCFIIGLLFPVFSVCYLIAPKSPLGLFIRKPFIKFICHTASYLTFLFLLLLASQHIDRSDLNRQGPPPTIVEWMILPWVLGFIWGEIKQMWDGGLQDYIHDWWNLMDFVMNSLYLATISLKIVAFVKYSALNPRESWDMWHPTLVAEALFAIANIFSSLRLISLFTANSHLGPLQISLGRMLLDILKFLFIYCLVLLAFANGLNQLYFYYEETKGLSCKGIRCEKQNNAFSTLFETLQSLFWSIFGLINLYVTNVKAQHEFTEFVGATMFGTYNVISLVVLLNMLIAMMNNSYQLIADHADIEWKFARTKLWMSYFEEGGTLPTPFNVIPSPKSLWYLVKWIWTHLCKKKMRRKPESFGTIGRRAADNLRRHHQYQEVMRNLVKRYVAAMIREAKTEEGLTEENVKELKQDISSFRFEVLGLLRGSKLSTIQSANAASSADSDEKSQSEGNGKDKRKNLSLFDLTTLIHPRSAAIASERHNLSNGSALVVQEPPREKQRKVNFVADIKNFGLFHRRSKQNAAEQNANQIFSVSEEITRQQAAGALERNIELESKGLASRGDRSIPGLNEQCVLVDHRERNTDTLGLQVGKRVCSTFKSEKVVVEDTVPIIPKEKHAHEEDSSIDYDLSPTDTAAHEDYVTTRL

Beta-galactosidase [11] = molecular target: T3, Beta-galactosidase; assay: beta-galactosidase enzyme inhibitors and activators, dose response, artefact control for CCR6 antagonist project, biochemical, E. coli enzyme, set 3 (AID 504712); format: functional
[12] = molecular target: T5, Microphthalmia-associated transcription factor (Homo sapiens, UniProt O75030); assay: TRPM1 promoter luciferase signal decrease, dose response, MITF inhibitor project, cell-based, SK-MEL-5, cherry-picked, set 3 (AID 493073); format: functional
T5 sequence (O75030 whole entry): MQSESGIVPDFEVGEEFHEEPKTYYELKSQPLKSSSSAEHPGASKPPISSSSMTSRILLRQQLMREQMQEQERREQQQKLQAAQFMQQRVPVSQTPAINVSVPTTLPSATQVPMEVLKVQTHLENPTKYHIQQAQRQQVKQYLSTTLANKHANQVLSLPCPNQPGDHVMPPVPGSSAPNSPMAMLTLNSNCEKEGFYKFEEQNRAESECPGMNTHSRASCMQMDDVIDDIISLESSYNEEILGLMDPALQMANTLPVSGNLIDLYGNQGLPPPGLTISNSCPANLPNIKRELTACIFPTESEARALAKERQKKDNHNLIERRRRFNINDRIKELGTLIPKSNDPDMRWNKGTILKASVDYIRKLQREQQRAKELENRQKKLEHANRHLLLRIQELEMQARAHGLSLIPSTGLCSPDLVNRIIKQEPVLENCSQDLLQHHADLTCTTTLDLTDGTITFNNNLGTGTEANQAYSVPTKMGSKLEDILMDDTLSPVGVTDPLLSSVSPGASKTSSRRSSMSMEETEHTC

[13] = molecular target: Heat shock protein HSP 90-alpha (Homo sapiens, UniProt P07900); format: functional, organism-based
Melanocortin receptor 4 = Melanocortin receptor 4 (Homo sapiens, UniProt P32245); assay: MC4R antagonist potency on cAMP, dose response, cell-based, TR-FRET, biased antagonists (AID 602298); format: functional;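 further: antagonist potency against agonist-stimulated cAMP production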
[14] = nonselective inhibitors of cellular cAMP signaling, dose response, counter-screen for MC4R biased antagonist project, cell-based, TR-FRET cAMP detection (AID 602305); format: functional;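 further: U2OS cells stimulated with forskolin near its EC80 as the cAMP inducer; potency is for inhibition of forskolin-stimulated cAMP signaling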
[15] = NIH-3T3 fibroblast cytotoxicity, dose response, cytotoxicity control for antifungal single agent project, cell-based, Alamar Blue, dry powder (AID 602188); format: functional
CHO-K1 = assay: Counterscreen for antagonists of the orexin 1 receptor (OX1R; HCRTR1): Homogeneous time resolved fluorescence (HTRF)-based cell-based dose response assay to identify antagonists of the parental CHO-K1 cell line. [Related pubchem assays (depositor defined):AID434989, AID435008, AID463079, AID485270, AID492963, AID492964, AID492965, AID493232, AID504699, AID504701]; format: functional; conditions: Cricetulus griseus
[16] = Counterscreen for antagonists of the orexin 1 receptor (OX1R; HCRTR1): Fluorescence-based cell-based high throughput dose response assay to identify antagonists of the parental CHO cell line. [Related pubchem assays (depositor defined):AID434989, AID435008, AID463079, AID485270, AID492963, AID492964, AID492965, AID493232, AID504699, AID504701]; format: functional
[17] = molecular target: T6, Orexin/Hypocretin receptor type 1 (Homo sapiens, UniProt O43613); assay: Homogeneous Time Resolved Fluorescence (HTRF)-based cell-based high throughput dose response assay for antagonists of the orexin 1 receptor (OX1R; HCRTR1). [Related pubchem assays (depositor defined):AID434989, AID435008, AID463079, AID485270, AID492963, AID492964, AID492965, AID493232, AID504717, AID504718]; format: functional
T6 sequence (O43613 whole entry): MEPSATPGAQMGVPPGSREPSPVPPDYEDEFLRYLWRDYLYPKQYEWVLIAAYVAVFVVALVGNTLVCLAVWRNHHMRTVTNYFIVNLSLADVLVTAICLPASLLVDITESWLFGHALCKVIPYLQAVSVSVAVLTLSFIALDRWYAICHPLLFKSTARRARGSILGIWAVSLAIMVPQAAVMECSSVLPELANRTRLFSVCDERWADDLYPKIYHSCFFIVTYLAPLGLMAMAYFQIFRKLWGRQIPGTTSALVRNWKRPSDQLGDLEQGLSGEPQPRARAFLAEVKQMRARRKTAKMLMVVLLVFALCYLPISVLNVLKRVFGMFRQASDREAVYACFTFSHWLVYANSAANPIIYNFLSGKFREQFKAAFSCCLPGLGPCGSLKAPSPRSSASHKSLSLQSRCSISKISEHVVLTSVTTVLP

[18] = molecular target: T6, Orexin/Hypocretin receptor type 1; assay: Fluorescence-based cell-based high throughput dose response assay for antagonists of the orexin 1 receptor (OX1R; HCRTR1). [Related pubchem assays (depositor defined):AID434989, AID435008, AID463079, AID485270, AID492963, AID492964, AID492965, AID493232, AID504717, AID504718]; format: functional
[19] = molecular target: T7, Carboxy-terminal domain RNA polymerase II polypeptide A small phosphatase 1 (Homo sapiens, UniProt Q9GZU7); assay: inhibitors of CTDSP1, concentration-response testing, biochemical assay, absorbance-based, actives from ultra-high-throughput screening (AID 540297); format: functional
T7 sequence (Q9GZU7 whole entry): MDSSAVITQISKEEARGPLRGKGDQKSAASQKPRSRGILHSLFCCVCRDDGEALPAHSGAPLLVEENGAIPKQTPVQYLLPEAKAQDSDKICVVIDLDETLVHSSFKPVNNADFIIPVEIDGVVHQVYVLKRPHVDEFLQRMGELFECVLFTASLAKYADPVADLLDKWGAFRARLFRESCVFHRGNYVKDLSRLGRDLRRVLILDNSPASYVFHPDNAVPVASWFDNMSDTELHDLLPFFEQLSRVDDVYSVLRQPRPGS

Orexin receptor type 2 [20] = molecular target: T8, Orexin receptor type 2 (Homo sapiens, UniProt O43614); assay: Counterscreen assay for antagonists of the orexin 1 receptor (OX1R; HCRTR1): Fluorescence-based cell-based dose response assay for antagonists of the orexin 2 receptor (OX2R; HCRTR2), run by assay provider.; format: functional
T8 sequence (O43614 whole entry): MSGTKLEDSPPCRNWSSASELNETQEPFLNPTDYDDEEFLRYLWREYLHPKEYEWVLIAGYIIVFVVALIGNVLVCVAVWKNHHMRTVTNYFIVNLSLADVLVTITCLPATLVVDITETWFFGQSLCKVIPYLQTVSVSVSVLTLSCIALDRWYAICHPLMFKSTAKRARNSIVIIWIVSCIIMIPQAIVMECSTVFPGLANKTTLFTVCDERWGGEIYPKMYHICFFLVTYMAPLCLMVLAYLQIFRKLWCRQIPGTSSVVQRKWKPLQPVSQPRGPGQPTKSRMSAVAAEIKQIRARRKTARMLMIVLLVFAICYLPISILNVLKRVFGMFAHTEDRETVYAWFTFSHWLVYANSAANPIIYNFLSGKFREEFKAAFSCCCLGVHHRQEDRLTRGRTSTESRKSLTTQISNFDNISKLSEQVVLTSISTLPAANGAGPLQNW

Orexin receptor type 2 [21] = molecular target: T8, Orexin receptor type 2; assay: Counterscreen assay for antagonists of the orexin 1 receptor (OX1R; HCRTR1): Homogeneous Time Resolved Fluorescence (HTRF)-based cell-based dose response assay for antagonists of the orexin 2 receptor (OX2R; HCRTR2), run by assay provider.; format: functional
P388/ADR = assay: cells; format: functional; conditions: Mus musculus
SN12K1 = assay: cells; format: functional; conditions: Homo sapiens
P388 = assay: cells; format: functional; conditions: Mus musculus

T2 sequence (P41145 whole entry): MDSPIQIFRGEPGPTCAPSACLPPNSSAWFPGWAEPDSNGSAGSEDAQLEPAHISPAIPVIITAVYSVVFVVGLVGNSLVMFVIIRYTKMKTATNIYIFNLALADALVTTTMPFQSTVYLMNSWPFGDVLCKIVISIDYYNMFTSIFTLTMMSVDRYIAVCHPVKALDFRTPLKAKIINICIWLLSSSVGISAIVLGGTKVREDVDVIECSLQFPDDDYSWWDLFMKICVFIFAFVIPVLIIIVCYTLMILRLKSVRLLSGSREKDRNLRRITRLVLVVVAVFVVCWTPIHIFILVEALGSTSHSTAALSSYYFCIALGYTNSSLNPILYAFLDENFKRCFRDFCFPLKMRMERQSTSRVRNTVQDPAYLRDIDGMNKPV
T1 sequence (P41143 whole entry): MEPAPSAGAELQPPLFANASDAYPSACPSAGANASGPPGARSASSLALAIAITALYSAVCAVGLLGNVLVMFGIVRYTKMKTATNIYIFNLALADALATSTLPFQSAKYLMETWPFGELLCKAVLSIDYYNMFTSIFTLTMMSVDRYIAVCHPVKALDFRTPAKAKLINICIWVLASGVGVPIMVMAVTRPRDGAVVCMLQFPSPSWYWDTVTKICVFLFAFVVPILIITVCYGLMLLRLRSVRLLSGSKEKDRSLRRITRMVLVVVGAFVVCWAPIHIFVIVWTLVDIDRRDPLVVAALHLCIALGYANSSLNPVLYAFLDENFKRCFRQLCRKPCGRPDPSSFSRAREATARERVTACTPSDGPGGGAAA
Chain of Melanocortin receptor 4 (P32245 whole entry): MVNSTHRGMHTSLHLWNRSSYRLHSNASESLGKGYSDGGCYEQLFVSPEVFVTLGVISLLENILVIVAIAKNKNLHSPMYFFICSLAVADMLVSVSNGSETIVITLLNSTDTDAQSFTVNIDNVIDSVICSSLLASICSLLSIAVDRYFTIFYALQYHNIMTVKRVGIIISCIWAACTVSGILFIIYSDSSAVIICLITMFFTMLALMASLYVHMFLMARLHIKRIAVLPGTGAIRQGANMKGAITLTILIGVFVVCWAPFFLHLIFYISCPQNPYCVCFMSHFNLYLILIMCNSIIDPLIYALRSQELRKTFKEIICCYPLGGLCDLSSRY
T3 sequence (Q8VNN2 whole entry): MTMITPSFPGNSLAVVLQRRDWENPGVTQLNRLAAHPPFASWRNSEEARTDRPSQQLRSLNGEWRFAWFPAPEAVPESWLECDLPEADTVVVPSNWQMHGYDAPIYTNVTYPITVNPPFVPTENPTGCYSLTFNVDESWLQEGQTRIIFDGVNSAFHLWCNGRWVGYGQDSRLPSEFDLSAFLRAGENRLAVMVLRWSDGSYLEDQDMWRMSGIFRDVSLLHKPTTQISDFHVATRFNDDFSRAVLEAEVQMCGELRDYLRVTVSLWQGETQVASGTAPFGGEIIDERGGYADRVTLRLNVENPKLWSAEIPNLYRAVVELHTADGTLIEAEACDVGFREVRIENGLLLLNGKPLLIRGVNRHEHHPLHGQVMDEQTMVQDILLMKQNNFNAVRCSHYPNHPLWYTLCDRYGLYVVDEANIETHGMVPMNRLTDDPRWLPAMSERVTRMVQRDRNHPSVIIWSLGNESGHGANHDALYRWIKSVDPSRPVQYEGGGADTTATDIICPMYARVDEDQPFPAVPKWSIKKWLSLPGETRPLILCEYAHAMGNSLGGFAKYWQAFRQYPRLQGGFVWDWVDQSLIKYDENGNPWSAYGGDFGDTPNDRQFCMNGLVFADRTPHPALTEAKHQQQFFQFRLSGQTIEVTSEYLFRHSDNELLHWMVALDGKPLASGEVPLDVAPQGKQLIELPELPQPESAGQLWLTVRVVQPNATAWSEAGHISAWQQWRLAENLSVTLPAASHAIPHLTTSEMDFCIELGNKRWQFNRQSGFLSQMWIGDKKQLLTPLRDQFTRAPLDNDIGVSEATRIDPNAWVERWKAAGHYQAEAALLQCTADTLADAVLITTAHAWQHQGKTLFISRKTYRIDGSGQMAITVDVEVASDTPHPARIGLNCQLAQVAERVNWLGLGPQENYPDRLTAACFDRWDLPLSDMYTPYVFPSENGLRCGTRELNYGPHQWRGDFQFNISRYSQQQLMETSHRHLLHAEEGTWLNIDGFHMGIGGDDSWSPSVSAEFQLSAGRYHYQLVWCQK
Chain of Cytochrome P450 2D6 (P10635 whole entry): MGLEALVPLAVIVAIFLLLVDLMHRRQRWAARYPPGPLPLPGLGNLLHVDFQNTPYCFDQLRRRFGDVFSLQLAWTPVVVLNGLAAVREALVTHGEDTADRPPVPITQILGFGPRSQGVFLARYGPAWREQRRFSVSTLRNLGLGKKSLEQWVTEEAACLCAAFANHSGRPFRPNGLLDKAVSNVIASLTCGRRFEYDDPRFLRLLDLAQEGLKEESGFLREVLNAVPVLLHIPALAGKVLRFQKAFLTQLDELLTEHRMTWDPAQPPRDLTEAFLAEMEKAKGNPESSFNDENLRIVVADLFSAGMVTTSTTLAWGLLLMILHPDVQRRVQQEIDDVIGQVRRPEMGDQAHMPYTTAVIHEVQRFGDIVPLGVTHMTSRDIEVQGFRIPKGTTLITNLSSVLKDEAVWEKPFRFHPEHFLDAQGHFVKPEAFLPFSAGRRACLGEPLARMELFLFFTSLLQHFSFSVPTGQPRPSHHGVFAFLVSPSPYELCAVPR
Chain of Cytochrome P450 3A4 (P08684 whole entry): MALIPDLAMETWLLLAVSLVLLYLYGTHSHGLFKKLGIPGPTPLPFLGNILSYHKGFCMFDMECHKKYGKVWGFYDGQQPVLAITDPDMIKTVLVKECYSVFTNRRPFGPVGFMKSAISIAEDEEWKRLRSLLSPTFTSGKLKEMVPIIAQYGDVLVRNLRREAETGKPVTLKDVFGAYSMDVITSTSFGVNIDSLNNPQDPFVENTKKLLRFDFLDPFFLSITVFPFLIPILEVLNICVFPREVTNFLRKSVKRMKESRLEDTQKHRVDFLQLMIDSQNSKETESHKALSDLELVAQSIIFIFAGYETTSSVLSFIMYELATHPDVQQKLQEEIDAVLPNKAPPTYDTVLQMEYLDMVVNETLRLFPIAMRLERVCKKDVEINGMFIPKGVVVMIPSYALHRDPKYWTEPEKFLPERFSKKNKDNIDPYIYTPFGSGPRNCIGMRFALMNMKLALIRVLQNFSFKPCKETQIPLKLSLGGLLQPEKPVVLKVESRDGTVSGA
Chain of Mu-type opioid receptor (P35372 whole entry): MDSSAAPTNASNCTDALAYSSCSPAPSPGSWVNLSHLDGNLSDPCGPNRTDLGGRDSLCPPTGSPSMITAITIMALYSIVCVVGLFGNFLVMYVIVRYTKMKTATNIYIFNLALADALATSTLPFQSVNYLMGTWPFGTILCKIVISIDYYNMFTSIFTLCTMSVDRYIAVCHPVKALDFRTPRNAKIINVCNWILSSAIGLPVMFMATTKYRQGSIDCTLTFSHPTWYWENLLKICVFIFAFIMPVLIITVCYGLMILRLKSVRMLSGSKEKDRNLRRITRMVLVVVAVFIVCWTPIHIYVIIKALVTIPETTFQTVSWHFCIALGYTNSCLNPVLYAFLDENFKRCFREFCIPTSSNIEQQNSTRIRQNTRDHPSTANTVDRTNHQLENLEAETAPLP
Chain of Glucose-6-phosphate 1-dehydrogenase (P11413 whole entry): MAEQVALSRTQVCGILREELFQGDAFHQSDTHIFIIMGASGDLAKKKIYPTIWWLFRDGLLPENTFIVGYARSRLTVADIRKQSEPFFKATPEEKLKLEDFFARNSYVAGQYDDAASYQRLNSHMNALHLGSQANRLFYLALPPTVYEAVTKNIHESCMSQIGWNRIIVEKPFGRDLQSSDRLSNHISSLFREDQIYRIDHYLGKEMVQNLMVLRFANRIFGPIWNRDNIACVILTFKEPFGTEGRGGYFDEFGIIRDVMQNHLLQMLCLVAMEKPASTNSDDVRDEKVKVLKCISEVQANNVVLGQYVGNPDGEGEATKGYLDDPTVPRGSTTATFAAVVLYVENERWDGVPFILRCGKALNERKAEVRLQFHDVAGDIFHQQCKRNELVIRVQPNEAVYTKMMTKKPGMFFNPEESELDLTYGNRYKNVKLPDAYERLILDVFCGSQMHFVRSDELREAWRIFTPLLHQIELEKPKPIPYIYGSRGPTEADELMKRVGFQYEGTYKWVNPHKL
Chain of Protein Wnt-3a (P27467 whole entry): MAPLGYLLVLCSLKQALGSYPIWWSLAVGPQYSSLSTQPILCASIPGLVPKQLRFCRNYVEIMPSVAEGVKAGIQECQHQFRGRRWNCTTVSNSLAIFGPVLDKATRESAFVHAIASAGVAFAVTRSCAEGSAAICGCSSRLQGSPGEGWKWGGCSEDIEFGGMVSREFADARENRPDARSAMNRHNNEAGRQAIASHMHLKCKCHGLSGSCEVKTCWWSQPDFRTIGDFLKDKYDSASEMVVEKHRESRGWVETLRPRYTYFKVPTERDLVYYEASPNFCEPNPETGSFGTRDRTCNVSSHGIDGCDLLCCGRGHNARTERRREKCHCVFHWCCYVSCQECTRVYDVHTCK

## FC(F)(F)c1ccc(N2CCN(c3cc(-c4ccccc4)nc4ncnn34)CC2)nc1
Protein Wnt-3a
  IC50: 5.78 µM (active)
Cytochrome P450 2D6
  AC50: 11.2 µM (inconclusive)
Cytochrome P450 3A4
  AC50: inconclusive

## CCOC(=O)CCCCC(=O)c1[nH]c(=O)[nH]c1Cn1ccnc1
[1]
  IC50: 12.8 µM (inactive)

## Cc1ccc(NC(=O)c2cc(N3C(=O)C=CC3=O)ccc2N2CCOCC2)cc1
[2]
  IC50: > 32 µM (inactive)
Mu-type opioid receptor
  EC50: > 32 µM (inactive)
[3]
  EC50: > 32 µM (inactive)
[4]
  EC50: 2.85 µM (active)
[5]
  IC50: 8.25 µM (active)
[6]
  EC50: 6.01 µM (active)
Beta-galactosidase [7]
  EC50: > 31.5 µM (inactive)
[8]
  IC50: 23.7 µM
[9]
  IC50: 53 µM (inactive)
[10]
  EC50: 5.31 µM (active)
Beta-galactosidase [11]
  IC50: > 66.6 µM (inactive)
[12]
  AC50: 11.6 µM (active)
[13]
  AC50: 0.591 µM (active)
Melanocortin receptor 4
  IC50: 11.9 µM (inactive)
[14]
  IC50: 39 µM (inactive)

## Oc1c(CN2CCN(c3ccccc3)CC2)cc(Cl)c2cccnc12
[15]
  AC50: 0.964 µM (active)

## O=C(OCc1cc(=O)n2c(n1)sc1ccccc12)c1cccc(O)c1
CHO-K1
  IC50: > 66.2 µM (inactive)
[16]
  IC50: 37 µM (inactive)
[17]
  IC50: 5.46 µM (active)
[18]
  IC50: 5.73 µM (active)
[19]
  IC50: 3.87 µM (active)
Orexin receptor type 2 [20]
  IC50: > 88.8 µM (inactive)
Orexin receptor type 2 [21]
  IC50: > 50 µM (inactive)

## CC(C)Cc1ccc(C(C)CC2=CCC(CN(C)C)C2=O)cc1 (configuration not stated)
Melanocortin receptor 4
  IC50: 8.78 µM (active)
P388/ADR
  GI50: 1.09 µM (active)
SN12K1
  GI50: 3.33 µM (inactive)
[14]
  IC50: > 64.7 µM (inactive)
P388
  GI50: 2.02 µM (inactive)
